Among the data in patent EP1200406B1, “CYCLIC AMIDES AND IMIDES HAVING SELECTIVE ANTAGONIST ACTIVITY AT ALPHA-1D ADRENERGIC RECEPTOR” (RECORDATI INDUSTRIA CHIMICA E FARMACEUTICA S.p.a., priority 1999, dated 2001) are Ki values, retold here.

pKi: −log10 of the molar value.

The target in the first assay is T1, human recombinant α1d adrenoceptor (Homo sapiens, UniProt P25100).
T1 construct: expressed in transfected cells; host or cells: CHO cells (membranes)
T1 sequence (P25100 1-572): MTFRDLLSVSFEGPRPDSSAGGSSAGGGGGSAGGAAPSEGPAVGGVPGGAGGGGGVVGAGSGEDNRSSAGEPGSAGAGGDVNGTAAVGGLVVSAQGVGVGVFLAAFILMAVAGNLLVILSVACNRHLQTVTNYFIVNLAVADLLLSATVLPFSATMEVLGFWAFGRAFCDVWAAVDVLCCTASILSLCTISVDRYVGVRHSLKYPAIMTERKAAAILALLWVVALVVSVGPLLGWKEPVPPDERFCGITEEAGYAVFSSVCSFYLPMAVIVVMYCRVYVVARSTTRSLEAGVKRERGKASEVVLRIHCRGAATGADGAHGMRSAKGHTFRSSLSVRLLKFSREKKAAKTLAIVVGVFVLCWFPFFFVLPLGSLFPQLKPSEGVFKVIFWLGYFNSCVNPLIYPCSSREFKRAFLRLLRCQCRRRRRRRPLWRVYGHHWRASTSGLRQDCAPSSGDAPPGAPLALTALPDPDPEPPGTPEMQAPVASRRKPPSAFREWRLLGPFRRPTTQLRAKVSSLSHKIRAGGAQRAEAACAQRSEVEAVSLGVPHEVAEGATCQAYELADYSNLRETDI
Put plainly: Radioligand binding ([3H]prazosin) on membranes of CHO cells expressing cloned α1d adrenoceptor. To be noted: human cloned receptor, CHO cell membranes, 0.2 nM [3H]prazosin; read-out: Affinity (Ki) α1d. The procedure: The determination of affinity for cloned subtypes of human α1 adrenergic receptors was performed in membranes from CHO cells (chinese hamster ovary cells) transfected by electroporation with DNA expressing the genes encoding each α1-adrenoceptor subtype, namely α1a, α1b and α1d.. Cloning and stable expression of the human α1-adrenoceptor gene were performed as previously described (Testa et al., Pharmacol. Comm. 6, 79-86 (1995)). CHO cell membranes were incubated in […] Tris pH 7.4 with 0.2 nM [^3H]prazosin, in a final volume of 1.02 ml for 30 minutes at 25°C, in the absence or presence of competing drugs (1 pM-10 µM). Non-specific binding was determined in the presence of 10 µM phentolamine. Incubation was stopped by addition of ice-cold Tris buffer and rapid filtration through 0.2% polyethyleneimine pretreated Schleicher & Schuell GF52 filters. […] The HeLa cells were grown as monolayers in Dulbecco's modified Eagle's medium (DMEM), supplemented with 10% foetal calf serum and gentamicin (100 µg/ml), 5% CO2, at 37°C. The cells were detached from the growth flask at 95% confluence by a cell scraper and were lysed in ice-cold 5 mM Tris and 5-mM EDTA buffer (pH 7.4). The homogenates were centrifuged at 40000 x g x 20 minutes and the membranes were re-suspended in a small volume of ice-cold 5 mM Tris and 5-mM EDTA buffer (pH 7.4) and immediately frozen and stored at -70°C until use. On the experiment day, the cell membranes were re-suspended in a buffer containing 50 mM Tris (pH 7.4), 2.5 mM MgCl2, 10 µM pargyline (Fargin et al., Nature 335, 358-360 (1988)). […] The incubation was stopped by addition of ice-cold Tris buffer and rapid filtration through 0.2%-polyethyleneimine-pretreated Schleicher & Schuell filters. The inhibition of specific binding of the radioligands by the drugs was analysed to estimate the IC50 value by using the non-linear curve-fitting programme Allfit (De Lean et al., Am. J. Physiol. 235, E97-E102 (1978)). The IC50 value was converted to an affinity constant (Ki) by the equation of Cheng & Prusoff (Biochem. Pharmacol. 22, 3099-3108 (1973)). Data were expressed as mean of Ki.
Regarding `Cc1ccc(F)c(N2CCN(CCN3C(=O)CC4(CCCC4)CC3=O)CC2)c1` [Example 4, 8-{2-[4-(2-Fluoro-5-methylphenyl)-1-piperazinyl]-ethyl}-8-azaspiro[4.5]decane-7,9-dione], the pKi is 8.62. Still for that read-out and setting: then `O=C1CC2(CCCC2)C(=O)N1CCN1CCN(c2cc(Cl)ccc2Cl)CC1` [Example 14, 2-{2-[4-(2,5-Dichlorophenyl)-1-piperazinyl]-ethyl}-2-azaspiro[4.4]nonane-1,3-dione], with 8.51. As to `O=C1CC2(CCCCC2)CC(=O)N1CCN1CCN(c2cc(Cl)ccc2Cl)CC1` [Example 11, 3-{2-[4-(2,5-Dichlorophenyl)-1-piperazinyl]-ethyl}-3-azaspiro[5.5]undecane-2,4-dione], the pKi is 8.66.

Turning to `O=C1CC2(CCCC2)CC(=O)N1CCN1CCN(c2cc(I)ccc2Cl)CC1` [Example 10, 8-{2-[4-(2-Chloro-5-iodophenyl)-1-piperazinyl]-ethyl}-8-azaspiro[4.5]decane-7,9-dione], the pKi was 7.82. As for `O=C1CC2(CCCC2)CC(=O)N1CCN1CCN(c2cc(F)ccc2Cl)CC1` [Example 9, 8-{2-[4-(2-Chloro-5-fluorophenyl)-1-piperazinyl]-ethyl}-8-azaspiro[4.5]decane-7,9-dione], the negative logarithm of the Ki (pKi) was 9.74.

For the compound `N#Cc1ccc(Cl)cc1N1CCN(CCN2C(=O)CC3(CCCC3)CC2=O)CC1` [Example 8, 8-{2-[4-(5-Chloro-2-cyanophenyl)-1-piperazinyl]-ethyl}-8-azaspiro[4.5]decane-7,9-dione], the negative-log Ki (pKi) was 9.70. Turning to `O=C1CC2(CCC2)CC(=O)N1CCN1CCN(c2cc(Cl)ccc2Cl)CC1` [Example 15, 7-{2-[4-(2,5-Dichlorophenyl)-1-piperazinyl]-ethyl}-7-azaspiro[3.5]nonane-6,8-dione], the pKi is 8.58. As for `O=C1CC2(CCCC2)CC(=O)N1CCN1CCN(c2cc(Br)ccc2Br)CC1` [Example 7, 8-{2-[4-(2,5-Dibromophenyl)-1-piperazinyl]-ethyl}-8-azaspiro[4.5]decane-7,9-dione], the pKi is 8.43. For the compound `O=C1CC2(CCCC2)CC(=O)N1CCN1CCN(c2cc(C(F)(F)F)ccc2F)CC1` [Example 6, 8-{2-[4-(2-Fluoro-5-trifluoromethylphenyl)-1-piperazinyl]-ethyl}-8-azaspiro[4.5]decane-7,9-dione], the pKi was 8.12. With `O=C1CC2(CCCC2)CC(=O)N1CCN1CCC(c2cc(Cl)ccc2Cl)CC1` [Example 17, 8-{2-[4-(2,5-Dichlorophenyl)-1-piperidinyl]-ethyl}-8-azaspiro[4.5]decane-7,9-dione], the pKi was 8.82.

Regarding `Cc1ccc(C)c(N2CCN(CCN3C(=O)CC4(CCCC4)CC3=O)CC2)c1` [Example 5, 8-{2-[4-(2,5-Dimethylphenyl)-1-piperazinyl]-ethyl}-8-azaspiro[4.5]decane-7,9-dione], the pKi was 7.99.

With `CN(CCN1C(=O)CC2(CCCC2)CC1=O)CCN(C)c1cc(Cl)ccc1Cl` [Example 18, N-(2,5-Dichlorophenyl)-N'-{2-(7,9-dioxo-8-azaspiro[4.5]decane-8-yl)-ethyl}-N,N'-dimethyl-1,2-diaminoethane], the negative logarithm of the Ki (pKi) is 7.79. Take `CCC1(C)CC(=O)N(CCN2CCN(c3cc(Cl)ccc3Cl)CC2)C(=O)C1` [Example 13, 1-{2-[4-(2,5-Dichlorophenyl)-1-piperazinyl]-ethyl}-4-ethyl-4-methylpiperidinyl-2,6-dione]: the pKi was 8.91. Turning to `CC(CN1CCN(c2cc(Cl)ccc2Cl)CC1)N1C(=O)CC2(CCCC2)CC1=O` (centres unmarked) [Example 16, 8-{2-[4-(2,5-Dichlorophenyl)-1-piperazinyl]-1-methylethyl}-8-azaspiro[4.5]decane-7,9-dione], the pKi is 9.39. With `O=C1CC2(CCCC2)CCN1CCN1CCN(c2cc(F)c(F)cc2F)CC1` [Example 24, 8-{2-[4-(2,4,5-Trifluorophenyl)-1-piperazinyl]-ethyl}-8-azaspiro[4.5]decane-7-one], the negative logarithm of the Ki (pKi) was 9.51.

The assay is the same for the next values; noted with them: read-out: Affinity (Ki) α1d.
For the compound `O=C1CC2(C=CN1CCN1CCN(c3cc(Cl)ccc3Cl)CC1)CCCC2` [Example 20, 8-{2-[4-(2,5-Dichlorophenyl)-1-piperazinyl]-ethyl}-8-azaspiro[4.5]dec-9,10-en-7-one], the pKi was 8.84. Consider `O=C1CCCC(=O)N1CCN1CCN(c2cc(Cl)ccc2Cl)CC1` [Example 2, 1-{2-[4-(2,5-Dichlorophenyl)-1-piperazinyl]-ethyl}-piperidinyl-2,6-dione], for which the pKi was 8.49.
